Data set [1] deals with PC3 cells. As to the kind of experiment: Apoptosis assay (caspase 3 activity) in PC3 cells. Format: cell-based, human. The following applies: PC3, citrate-oxidizing cells; 6 h. The method, then: (§1) Immunoblotting: Immunoblotting was carried out as described in Example 2. […] Apoptosis Assay: […] Lonidamine was added into each well at different concentrations, and then incubated for 6 h at 37° C. To assess the caspase 3 activity, the homogeneous buffer and caspase 3 substrate (Promega No G7791; Promega Corporation, 2800 Woods Hollow Road, Madison Wis. USA 53711) were added into each well in the presence or absence of caspase 3 inhibitor (Promega No G5961). The fluorescence intensity of cleaved substrate was determined using a fluorescence plate reader at excitation 485 nm and emission 530 nm.

For data set [2], the system named is human prostate epithelial cells. As to the kind of experiment: Apoptosis assay in primary cultures of human prostate epithelial cells. Format: cell-based. Here is the method: (§2) Primary Cell Cultures: Primary cultures of human prostate epithelial cells (Cambrex No. CC-2555) and human prostate stromal cells (Cambrex No. CC-2508) were obtained from Cambrex Bio Science Rockland, Inc. (191 Thomaston Street, Rockland, Me. 04841). Apoptosis Assay: […] Lonidamine was added into each well at different concentrations, and then incubated for 6 h at 37° C. To assess the caspase 3 activity, the homogeneous buffer and caspase 3 substrate (Promega No G7791; Promega Corporation, 2800 Woods Hollow Road, Madison Wis. USA 53711) were added into each well in the presence or absence of caspase 3 inhibitor (Promega No G5961). The fluorescence intensity of cleaved substrate was determined using a fluorescence plate reader at excitation 485 nm and emission 530 nm.

In data set [3] the test system is HIF-1α. Nature of the data set: HIF-1α expression in PC3 cells (immunoblot of nuclear and whole cell extracts). The following applies: normoxic and hypoxic conditions, 4 hours, dose-dependent. It is filed as cell-based, human. From the text: (§3) See Franklin et al; 1995. […] 20108 USA. Methods: […]
Data set [4] has as its system HIF-1α. Nature of the data set: HIF-1α expression in LNCaP cells (immunoblot of nuclear and whole cell extracts). Format: cell-based, human. The following applies: hypoxic conditions (oxygen level <0.1%).
Source text: as §3
For orientation: A western blot detects proteins with antibodies after separation by electrophoresis.

The subject of data set [5] is actin, caspase 3, NF-κB, IκBα. As to the kind of experiment: Protein levels of actin, caspase 3, NF-κB, IκBα in prostate cell lines (immunoblot). It is filed as cell-based, human. The settings on record: except at 800 μM concentration.
Experimental: Methods: Cells were plated at a density of 5×10^5 cells into a dish, and then maintained in 37° C. incubator (5% CO2) for 2 days. Prior to the assay, cells were rinsed twice with pre-warmed (37° C.) RPMI-1640 Medium (ATCC No. 30-2001; 10 mM HEPES; 1 mM sodium pyruvate; 2 mM L-glutamine; 4500 mg glucose/L; 1500 mg sodium bicarbonate/L). Cells were incubated with 2 ml culture medium in the absence or presence of lonidamine at different concentrations for 4 hours at 37° C. either under normoxia or hypoxia (oxygen level<0.1%). At the end of the incubation, the dish was placed on ice, and the cells were washed rapidly twice with cold PBS buffer (4° C.). For nuclear extracts, cells were lysed with buffer A (10 mM Tris, pH7.5; 1.5 mM MgCl2; 10 mM KCl and protease inhibitors and buffer C (0.5 M NaCl; 20 mM Tris pH7.5; 1.5 mM MgCl2; 20% glycerol and protease inhibitors), sequentially. The protease inhibitors used in the experiments were a cocktail of five protease inhibitors (500 mM AEBSF-HCl, 1 mg/ml Aprotinin, 1 mM E-64, 500 mM EDTA and 1 mM Leupeptin; Calbiochem NO 539131). For whole cell lysate, cells were lysed with 150 mM NaCl; 10 mM Tris ph7.5; 10 mM EDTA; 1% Triton X-100; 0.5% Deoxycholate, and protease inhibitors. The protein concentration was measured using a Bio-Rad protein assay. Equal amounts of protein were loaded on a SDS-PAGE gel. […]
In data set [6] the test system is LNCaP cells. Nature of the data set: Apoptosis assay (caspase 3 activity) in LNCaP cells. It is filed as cell-based, human. The settings on record: citrate-producing cells, 6 h. The method, then: as §1
Data set [7] relates to human prostate stromal cells. Nature of the data set: Apoptosis assay in primary cultures of human prostate stromal cells. It is filed as cell-based. The following applies: 6 h. The method, then:
as §2

The conditions of data set [8]: higher doses of lonidamine; usually mild; cited from earlier work.

“Also recorded” adds a separate entry of the source.

Turning to `O=C(O)c1nn(Cc2ccc(Cl)cc2Cl)c2ccccc12` [lonidamine, 1-(2,4-dichlorobenzyl)-1H-indazole-3-carboxylic acid], the “activation of caspase 3 (apoptosis), LNCaP compared with PC3 cells” value in data set [1] is “significantly greater in LNCaP cells”. The “induction of apoptosis, epithelial compared with stromal cells” value in data set [2] (primary cultures) is listed as “significantly greater in primary cultures of prostate epithelial cells”. For the same molecule, the induction of apoptosis entry is given as “induced apoptosis only in prostate epithelial cells in a dose-dependent manner; also recorded: induces apoptosis” in data set [2] (primary prostate epithelial cells, 6 h) and “induction of apoptosis was not observed” in data set [7]. Besides, the “level of HIF-1α protein in nuclear and whole-cell extracts” value in data set [3] was “reduced the level of HIF-1α protein”. In data set [4], the “effect on HIF-1α expression, LNCaP compared with PC3 cells” value is “more pronounced in LNCaP cells than in PC3 cells”. Further, the “inhibition of protein levels of actin, caspase 3, NF-κB, or IκBα” value in data set [5] is “no detectable inhibition”. Further, in data set [6], the “activation of caspase 3 (apoptosis)” value is listed as “induced activation of caspase 3”. The side effects entry in data set [8] is “myalgia and testicular pain”.

The values are drawn from patent US20050271723A1, “Dosage forms for treatment of benign prostatic hyperplasia” (Threshold Pharmaceuticals, Inc., priority 2003, published 2005).
